Assay results published in patent US20180153159A1, “FATTY NITRILE SOLVENTS FOR AGRICULTURAL FORMULATIONS” (priority 2015, published 2018).

Columns and labels:
[1] = Solubility of various pesticides in alkyl nitrile; assay type: physicochemical
Excerpt: In Table 1, the designation of C14-18 represents the nitrile derived from tallow and C8-C16 represents the nitrile derived from coco. Note that the C14-C18 tallow nitrile corresponds to an R value of C13-C17 in Formula (I), because Formula (I) includes a carbon atom outside of the R group definition. Likewise, C8-C16 coco nitrile corresponds to an R value of C7-C15 in Formula (I). The C10 value in the first column of Table 1 corresponds to an R value of C9 in Formula (I) for the same reasons.

[2] = Appearance, flow and viscosity of (DMAPA) DDBS diluted with fatty nitrile; assay type: physicochemical
Excerpt: Dimethylaminopropylamine dodecylbenzene sulfonic acid (DMAPA-DDBS) is generally highly viscous. A low viscosity liquid sample of (DMAPA) DDBS was obtained by mixing 51.69 g of DDBS, 40 g tallow nitrile (fractionated), followed by slowly adding 8.31 g DMAPA.
A liquid sample of dimethylaminopropylamine (DMAPA) DDBS was obtained by mixing 43.08 g dodecylbenzene sulfonic (DDBS) acid, 25 g oleic nitrile, 25 g castor oil ethoxylate (10EO), followed by slowly adding 6.92 g DMAPA.

[3] = 0.1 g in 5 g C14-C18 (tallow) nitrile
[4] = in 100 g C10 nitrile, room temperature
[5] = in 100 g C14-C18 (tallow) nitrile
[6] = <10 g in 100 g C14-C18 (tallow) nitrile

CNC.O=C(O)COc1ccc(Cl)cc1Cl [2,4-D DMA]
Result (solubility in alkyl nitrile) [1, 3]: Solid at bottom

CCOP(=S)(OCC)Oc1nc(Cl)c(Cl)cc1Cl [Chlorpyrifos]
Result (solubility in alkyl nitrile) ([1]; 44 g in 100 g C14-C18 (tallow) nitrile): Dissolved | Wt, g (pesticide dissolved) ([1]; in 20 g C10 nitrile + 80 g Solvesso 100 solvent, room temperature): 102 g | Wt, g (pesticide dissolved) ([1]; in 20 g C10 nitrile + 80 g methyl ester solvent, room temperature): 87 g | Wt, g (pesticide dissolved) ([1]; in 30 g C10 nitrile + 70 g methyl ester solvent, room temperature): 100 g | Wt, g (pesticide dissolved) ([1]; in 35 g C10 nitrile + 65 g Solvesso 100 solvent, room temperature): 103 g | Wt, g (pesticide dissolved) ([1]; in 40 g C10 nitrile + 60 g methyl ester solvent, room temperature): 166 g | Wt, g (pesticide dissolved) ([1]; in 50 g C10 nitrile + 50 g Solvesso 100 solvent, room temperature): 102 g | Wt, g (pesticide dissolved) [1, 4]: 84 g | Wt, g (pesticide dissolved) [1, 5]: 44 g | amount the C10 nitrile can dissolve ([1]; in C10 nitrile (Arneel 10D)): about 46%

O=C(O)CNCP(=O)(O)O [Glyphosate acid]
Result (solubility in alkyl nitrile) [1, 3]: Solid at bottom

COc1cc(OC)nc(NC(=O)NS(=O)(=O)c2ncccc2C(=O)N(C)C)n1 [Nicosulfuron]
Result (solubility in alkyl nitrile) ([1]; 0.114 g (92.22%) in 1 g C14-C18 (tallow) nitrile): Suspension

CC(C)(C)C(O)(CCc1ccc(Cl)cc1)Cn1cncn1 (stereo not drawn) [Tebuconazole]
Result (solubility in alkyl nitrile) ([1]; 0.4 g in 5 g C14-C18 (tallow) nitrile): Hazy to clr | Result (solubility in alkyl nitrile) [1, 6]: Dissolved | Wt, g (pesticide dissolved) [1, 4]: <10 g | Wt, g (pesticide dissolved) [1, 5]: <10 g

CON=C(C(=O)OC)c1ccccc1CON=C(C)c1cccc(C(F)(F)F)c1 [Trifloxystrobin]
Result (solubility in alkyl nitrile) [1, 6]: Dissolved | Wt, g (pesticide dissolved) ([1]; in 50 g C10 nitrile + 50 g rapeseed methylester (solvent), room temperature): 14 g | Wt, g (pesticide dissolved) [1, 4]: 19 g | Wt, g (pesticide dissolved) [1, 5]: <10 g

NC(N)=O [Urea]
Result (solubility in alkyl nitrile) ([1]; 0.26 g in 1 g C14-C18 (tallow) nitrile): Doesn't dissolve | solvency power of fatty nitrile towards the agrochemical ([1]; fatty nitrile as solvent): very little solvency power

Dimethylaminopropylamine dodecylbenzene sulfonic acid [(DMAPA) DDBS]
appearance, flow and viscosity of sample ([2]; 43.08 g DDBS acid, 25 g oleic nitrile, 25 g castor oil ethoxylate (10EO), 6.92 g DMAPA): clear, flowed at about 0° C., and had acceptable viscosity | appearance, flow and viscosity of sample ([2]; 51.69 g DDBS, 40 g tallow nitrile (fractionated), 8.31 g DMAPA): clear, flowed freely at room temperature and had acceptable viscosity | appearance, flow and viscosity of sample ([2]; oleic nitrile instead of tallow nitrile): flowed better at lower temperatures

Pyritherin
Result (solubility in alkyl nitrile) ([1]; 3.15 g in 5 g C14-C18 (tallow) nitrile): Clear
